Test results published in US12324827B2, “Combination therapy for the treatment of migraines” (The University of Chicago, priority 2019, dated 2025).

Experiments:
blood CGRP = test: CGRP plasma assay (ELISA) after recurrent spreading depression; assay type: in vivo, rat
Experimental: Blood was collected via cardiac puncture using a 21 gauge syringe needle and transferred into a BD Vacutainer K3 EDTA blood collection tube (366450, Becton, Dickinson & Co., Franklin Lakes, NJ). Samples were spun 1,500 g×10 min at 4° C. The plasma was transferred to sterile 2.0 mL, screw cap, polypropylene tubes and stored at −80° C. until analysis. Plasma samples were sent to Cayman Chemical Company (Ann Arbor, Michigan) for analysis of CGRP content using ELISA methods. According to the vendor, the detection limit is <10 pg/mL.

[1] = tested on: trigeminal ganglion malondialdehyde (MDA); test: Trigeminal ganglion V1 malondialdehyde immunostaining after recurrent CSD, nasal IGF-1 with or without intravenous anti-CGRP antibody (Example 5); assay type: in vivo, rat
Experimental: Migraine will be modeled using recurrent CSD (Grinberg et al., 2019; Won and Kraig 2019a,b; Won and Kraig, 2020). Briefly, the day before recurrent CSD, animals are anesthetized with inhalational isoflurane in oxygen (2-5%) and treated with intranasal IGF-1 (150 μg in 50 μl succinate buffer).
The next day (i.e., 20-24 hours later) animals are again be anesthetized as above with inhalational isoflurane and the left femoral vein cannulated for antibody infusion. Select groups of animals (see below) are treated with intravenous infusion either 1 mg/kg anti-CGRP (ab81887) or isotype IgG2a control in 0.5-0.6 ml normal saline. After infusions, the femoral incision is closed with wound clips.
Animals are stabilized for an hour under anesthesia (1.5% isoflurane in oxygen) after head sutures are removed, eyes coated with Artificial Tears and animals made ready for initiation and recording of CSD under deeper (5%) isoflurane in oxygen, which is then lowered back to 1.5% isoflurane in oxygen during CSD recordings. CSD is initiated as described above one to four hours after antibody infusion. All animals receive nine KCl injections. […]
2. […] All animals for nasal delivery of IGF-1 plus intravenous treatment (i.e., one ml saline or anti-CGRP antibody) followed by 90 minutes of evoked CSDs) were analyzed for trigeminal cervical complex c-fos immunostaining and trigeminal ganglion malondialdehyde immunostaining as previously described (Won and Kraig, 2020).
The inventors used a verified method of quantifying immunostaining log-ratios (experimental/sham) as a further means to reduce potential run-to-run variations in immunostaining for malondialdehyde, CGRP and c-fos positive cells (Won and Kraig, 2020). Images of malondialdehyde and CGRP were analyzed in blinded pairs so that they could be converted once decoded to ratios of experimental/sham image integrated optical intensity, a sensitive metric that not only accounts for the area but also the pixel intensity of related image fluorescence.

spreading depression = conditions: cited from earlier work
[2] = within 30 minutes of N2B administration; cited from earlier work

Question: Which “blood (plasma) CGRP level after recurrent SD” value (blood CGRP; IGF-1 pretreatment, n=6/group, three samples below the detection limit) does the source give for “IGF-1: human recombinant IGF-1 (#191-G1; R&D Systems), 150 μg in 50 μL sodium succinate buffer, delivered nose-to-brain” here?
Answer: The value was 7.7 ± 1.6 pg/mL.

Question: What about the “changes in blood CGRP levels after pretreatment followed by recurrent SD” value (blood CGRP; IGF-1 versus vehicle) of the same substance?
Answer: The value was “no significant (p=0.347, power=0.136) changes”.

Question: And the “ln ratio of trigeminal ganglion MDA immunostaining” value ([1]; nasal IGF-1 alone, as previously reported (Won and Kraig, 2020), n=5)?
Answer: The value was −1.76±0.29.

Question: What about the “ln ratio of trigeminal ganglion MDA immunostaining” value ([1]; nasal IGF-1 plus intravenous saline, n=3) of the same substance?
Answer: The value was −1.75±0.56.

Question: What about the “ln ratio of trigeminal ganglion MDA immunostaining, combined groups” value ([1]; nasal IGF-1 with or without intravenous saline / nasal succinate, n=8) of the same substance?
Answer: The value was −1.76±0.39.

Question: What about the “protection against SD over sham treatment” value (spreading depression; SD from KCl, pretreatment) of the same substance?
Answer: Its value is ~27 fold.

Question: And the “spreading depression in whole animals” value (spreading depression; nasal delivery)?
Answer: Its value is “significantly inhibited spreading depression in whole animals”.

Question: And the “levels in the trigeminal ganglion relative to levels in the olfactory bulb” value [2]?
Answer: The value was ~10 fold.
